Source: ChEMBL document CHEMBL1201862, “PubChem BioAssay data set” (2004)
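Grown in 96-well plates, cells were treated for 48 hours with each compound at five concentrations. Insufficient inhibition: endpoint recorded as highest concentration tested. Abbreviation: GI50, concentration required for 50% inhibition of growth.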 Active and inactive are the calls of the source. Cut-off read from the data, not from the text of the source: active = GI50 up to about 1.1 µM and inactive = higher.

Legend:
Assay in all cases: NCI-60 cell line screen, 48 h
Malme-3M = test system: Malme-3M
SK-MEL-28 = test system: SK-MEL-28
SNB-78 = test system: SNB-78
SF-539 = test system: SF-539
LXFL 529 = test system: LXFL 529
HCC 2998 = test system: HCC 2998
HOP-92 = test system: HOP-92
SK-MEL-2 = test system: SK-MEL-2
RXF 393 = test system: RXF 393
NCI-H522 = test system: NCI-H522
OVCAR-8 = test system: OVCAR-8
M14 = test system: M14
KM-20L2 = test system: KM-20L2
SF-295 = test system: SF-295
SW-620 = test system: SW-620
SNB-19 = test system: SNB-19
U-251 = test system: U-251
KM12 = test system: KM12
OVCAR-3 = test system: OVCAR-3
TK-10 = test system: TK-10
EKVX = test system: EKVX
HT-29 = test system: HT-29
OVCAR-4 = test system: OVCAR-4
DMS-273 = test system: DMS-273
HCT-116 = test system: HCT-116
LOX IMVI = test system: LOX IMVI
DLD-1 = test system: DLD-1
HOP-18 = test system: HOP-18
HOP-62 = test system: HOP-62
HCT-15 = test system: HCT-15
UO-31 = test system: UO-31
CAKI-1 = test system: CAKI-1
UACC-62 = test system: UACC-62
786-0 = test system: 786-0
IGROV-1 = test system: IGROV-1
SF-268 = test system: SF-268
UACC-257 = test system: UACC-257
K562 = test system: K562
A498 = test system: A498
CCRF-CEM = test system: CCRF-CEM
DMS-114 = test system: DMS-114
SK-MEL-5 = test system: SK-MEL-5
SNB-75 = test system: SNB-75
COLO 205 = test system: COLO 205
M19-MEL = test system: M19-MEL
ACHN = test system: ACHN
HL-60 = test system: HL-60
SK-OV-3 = test system: SK-OV-3
NCI-H460 = test system: NCI-H460
OVCAR-5 = test system: OVCAR-5
A549 = test system: A549
SR = test system: SR
NCI-H23 = test system: NCI-H23
SN12C = test system: SN12C
MOLT-4 = test system: MOLT-4
XF498 = test system: XF498
RPMI-8226 = test system: RPMI-8226
NCI-H226 = test system: NCI-H226

COc1cc(C2c3cc4c(cc3[C@@H](NCCN3CCOCC3)C3COC(=O)[C@H]23)OCO4)cc(OC)c1O (stereo partly specified) was tested, and the GI50 (Malme-3M) was 3.76 µM (inactive), the GI50 (SK-MEL-28) was 3.66 µM (inactive) and the GI50 (SNB-78) was > 17.5 µM (inactive). For the same molecule, the GI50 (SF-539) was 0.993 µM (active), the GI50 (LXFL 529) was > 17.5 µM (inactive) and the GI50 (HCC 2998) was 2.44 µM (inactive). The GI50 (HOP-92) was 1.31 µM (inactive), the GI50 (SK-MEL-2) was 4.89 µM (inactive) and the GI50 (RXF 393) was 2.9 µM (inactive). The GI50 (NCI-H522) was 3.16 µM (inactive), the GI50 (OVCAR-8) was 3.05 µM (inactive) and the GI50 (M14) was 3.98 µM (inactive). The GI50 (KM-20L2) was 5.2 µM (inactive), the GI50 (SF-295) was 2.49 µM (inactive) and the GI50 (SW-620) was 2.08 µM (inactive). For the same molecule, the GI50 (SNB-19) was 4.89 µM (inactive), the GI50 (U-251) was 1.26 µM (inactive) and the GI50 (KM12) was 4.01 µM (inactive). For the same molecule, the GI50 (OVCAR-3) was 4.13 µM (inactive), the GI50 (TK-10) was 5.56 µM (inactive) and the GI50 (EKVX) was 16.4 µM (inactive). For the same molecule, the GI50 (HT-29) was 5.73 µM (inactive), the GI50 (OVCAR-4) was > 17.5 µM (inactive) and the GI50 (DMS-273) was 0.805 µM (active). The GI50 (HCT-116) was 2.86 µM (inactive), the GI50 (LOX IMVI) was 1.77 µM (inactive) and the GI50 (DLD-1) was 5.45 µM (inactive). For the same molecule, the GI50 (HOP-18) was 4.52 µM (inactive), the GI50 (HOP-62) was 0.782 µM (active) and the GI50 (HCT-15) was 2.81 µM. For the same molecule, the GI50 (UO-31) was 2.94 µM (inactive), the GI50 (CAKI-1) was 2.08 µM (inactive) and the GI50 (UACC-62) was 2.09 µM (inactive). For the same molecule, the GI50 (786-0) was 2.1 µM (inactive), the GI50 (IGROV-1) was 5.52 µM (inactive) and the GI50 (SF-268) was 2.06 µM (inactive). The GI50 (UACC-257) was 4.4 µM (inactive) and the GI50 (K562) was 3.01 µM (inactive).
C=CCn1c(=S)sc2c(O)ncnc21 was tested, and the GI50 (Malme-3M) was > 100 µM (inactive), the GI50 (A498) was > 100 µM (inactive) and the GI50 (CCRF-CEM) was > 100 µM (inactive). The GI50 (DMS-114) was > 100 µM (inactive), the GI50 (SNB-78) was > 100 µM (inactive) and the GI50 (SF-539) was > 100 µM (inactive). For the same molecule, the GI50 (LXFL 529) was > 100 µM (inactive), the GI50 (HCC 2998) was > 100 µM (inactive) and the GI50 (HOP-92) was 94 µM (inactive). The GI50 (SK-MEL-2) was > 100 µM (inactive), the GI50 (SK-MEL-5) was > 100 µM (inactive) and the GI50 (NCI-H522) was > 100 µM (inactive). The GI50 (OVCAR-8) was > 100 µM (inactive), the GI50 (M14) was > 100 µM (inactive) and the GI50 (KM-20L2) was > 100 µM (inactive). The GI50 (SNB-75) was 61.2 µM (inactive), the GI50 (SF-295) was > 100 µM (inactive) and the GI50 (SW-620) was > 100 µM (inactive). For the same molecule, the GI50 (SNB-19) was > 100 µM (inactive), the GI50 (U-251) was 48.8 µM (inactive) and the GI50 (COLO 205) was > 100 µM (inactive). The GI50 (KM12) was > 100 µM (inactive), the GI50 (OVCAR-3) was > 100 µM (inactive) and the GI50 (TK-10) was > 100 µM (inactive). For the same molecule, the GI50 (M19-MEL) was > 100 µM (inactive), the GI50 (ACHN) was > 100 µM (inactive) and the GI50 (EKVX) was > 100 µM (inactive). For the same molecule, the GI50 (HT-29) was > 100 µM (inactive), the GI50 (OVCAR-4) was > 100 µM (inactive) and the GI50 (DMS-273) was > 100 µM (inactive). For the same molecule, the GI50 (HL-60) was > 100 µM (inactive), the GI50 (SK-OV-3) was > 100 µM (inactive) and the GI50 (NCI-H460) was > 100 µM (inactive). For the same molecule, the GI50 (HCT-116) was > 100 µM (inactive), the GI50 (LOX IMVI) was > 100 µM (inactive) and the GI50 (OVCAR-5) was > 100 µM (inactive). For the same molecule, the GI50 (DLD-1) was > 100 µM (inactive), the GI50 (A549) was > 100 µM (inactive) and the GI50 (SR) was > 100 µM (inactive). The GI50 (HOP-62) was > 100 µM (inactive), the GI50 (NCI-H23) was > 100 µM (inactive) and the GI50 (HCT-15) was greater than 100 µM. The GI50 (SN12C) was > 100 µM (inactive), the GI50 (UO-31) was > 100 µM (inactive) and the GI50 (CAKI-1) was > 100 µM (inactive). For the same molecule, the GI50 (UACC-62) was > 100 µM (inactive), the GI50 (786-0) was > 100 µM (inactive) and the GI50 (IGROV-1) was > 100 µM (inactive). For the same molecule, the GI50 (SF-268) was > 100 µM (inactive), the GI50 (MOLT-4) was > 100 µM (inactive) and the GI50 (XF498) was > 100 µM (inactive). The GI50 (UACC-257) was > 100 µM (inactive) and the GI50 (K562) was > 100 µM (inactive).
COc1ccccc1C1C(C(=O)O)=C(CO)Oc2cc3c(cc21)OCO3 (stereo unspecified) was tested, and the GI50 (Malme-3M) was > 100 µM (inactive), the GI50 (A498) was > 100 µM (inactive) and the GI50 (CCRF-CEM) was > 100 µM (inactive). The GI50 (SK-MEL-28) was > 100 µM (inactive), the GI50 (DMS-114) was > 100 µM (inactive) and the GI50 (SNB-78) was > 100 µM (inactive). The GI50 (SF-539) was > 100 µM (inactive), the GI50 (RPMI-8226) was > 100 µM (inactive) and the GI50 (LXFL 529) was > 100 µM (inactive). The GI50 (HOP-92) was > 100 µM (inactive), the GI50 (SK-MEL-2) was > 100 µM (inactive) and the GI50 (SK-MEL-5) was > 100 µM (inactive). The GI50 (NCI-H522) was > 100 µM (inactive), the GI50 (OVCAR-8) was > 100 µM (inactive) and the GI50 (M14) was > 100 µM (inactive). The GI50 (KM-20L2) was > 100 µM (inactive), the GI50 (SNB-75) was > 100 µM (inactive) and the GI50 (SF-295) was > 100 µM (inactive). The GI50 (SW-620) was > 100 µM (inactive), the GI50 (SNB-19) was > 100 µM (inactive) and the GI50 (U-251) was > 100 µM (inactive). The GI50 (COLO 205) was > 100 µM (inactive), the GI50 (OVCAR-3) was > 100 µM (inactive) and the GI50 (TK-10) was > 100 µM (inactive). For the same molecule, the GI50 (M19-MEL) was > 100 µM (inactive), the GI50 (ACHN) was > 100 µM (inactive) and the GI50 (EKVX) was > 100 µM (inactive). The GI50 (NCI-H226) was > 100 µM (inactive), the GI50 (HT-29) was > 100 µM (inactive) and the GI50 (DMS-273) was > 100 µM (inactive). For the same molecule, the GI50 (HL-60) was > 100 µM (inactive), the GI50 (SK-OV-3) was > 100 µM (inactive) and the GI50 (NCI-H460) was > 100 µM (inactive). The GI50 (LOX IMVI) was > 100 µM (inactive), the GI50 (HOP-18) was > 100 µM (inactive) and the GI50 (NCI-H23) was > 100 µM (inactive). For the same molecule, the GI50 (HCT-15) was greater than 100 µM, the GI50 (SN12C) was > 100 µM (inactive) and the GI50 (UO-31) was > 100 µM (inactive). The GI50 (CAKI-1) was > 100 µM (inactive), the GI50 (UACC-62) was > 100 µM (inactive) and the GI50 (IGROV-1) was > 100 µM (inactive). For the same molecule, the GI50 (SF-268) was > 100 µM (inactive), the GI50 (MOLT-4) was > 100 µM (inactive) and the GI50 (K562) was > 100 µM (inactive).
